Results as given in patent publication US20110118209A1 (priority 2006, published 2011).
Where two headings read alike, the source gives them in different places.

Key:
L1210/0 = assay type: in vivo, mice
L1210/CPA = assay type: in vivo, mice
B16 Melanoma = system: B16 Melanoma; parameters: species or system mice; conditions: mouse, in vivo
P388/CPA = assay type: in vivo, mice
human lox-IMVI melanoma = assay type: in vivo
mice [1] = test: Tolerability of IPM in tumor-bearing mice (Example 4 studies); assay type: in vivo; conditions: IP and IV treatment
Description: This example describes the evaluation of IPM against several different cancer cell lines implanted in mice.

mice [2] = conditions: 75 mg/kg, either sex
in vivo = conditions: rat, po
P388/0 = assay type: in vivo, mice
[3] = system: primary rabbit kidney proximal tubule (RPT) cells
[4] = 200 mg/kg IP day 2 only, male CDF1 mice
[5] = 175 mg/kg IP day 1 only, female CDF1 mice
[6] = 265 mg/kg IP day 1 only, female CDF1 mice

## O=P(O)(NCCCl)NCCCl [IPM, N,N′-di(2-chloroethyl)phosphorodiamidic acid]
L1210/0; mouse, in vivo
  Net log10 Reduction in tumor burden after therapy: 8 log10
L1210/CPA; mouse, in vivo
  Net log10 Reduction in tumor burden after therapy: 7 log10
B16 Melanoma
  efficacy compared with CPA and Ifos: slightly inferior to CPA but better than Ifos
P388/CPA; mouse, in vivo
  Net log10 Reduction in tumor burden after therapy: 7 log10
Human lox-IMVI melanoma; in vivo
  Median Day of Death: 29.0 days
Mice [1]
  tolerability: tolerated intraperitoneal (IP) and intravenous (IV) treatment with IPM well
Mice [2]
  microscopic findings: No obvious treatment-related microscopic findings
In vivo
  LD50: 1400 to 3500 mg/kg

## O=P1(NCCCl)OCCCN1CCCl (stereo not shown) [Ifos, Ifosfamide]
L1210/0; mouse, in vivo
  Net log10 Reduction in tumor burden after therapy: 8 log10
P388/0; mouse, in vivo
  Net log10 Reduction in tumor burden after therapy: 7 log10
P388/CPA; mouse, in vivo
  Net log10 Reduction in tumor burden after therapy: 4 log10

## C=CC=O [acrolein]
[3]; rabbit
  LD50: 80 µM

## O=P1(NCCCl)OCCC(O)N1CCCl (stereo not shown) [4-hydroxyifosfamide]
[3]
  cell death: extensive cell death

## O=P1(N(CCCl)CCCl)NCCCO1 (stereo not shown) [CPA, cyclophosphamide]
L1210/0; [4]
  Net log10 Reduction in tumor burden after therapy: 7 log10
L1210/CPA; [4]
  Net log10 Reduction in tumor burden after therapy: 4 log10
P388/0; [5]
  Net log10 Reduction in tumor burden after therapy: 7 log10
P388/0; [6]
  Net log10 Reduction in tumor burden after therapy: 7 log10
P388/CPA; [5]
  Net log10 Reduction in tumor burden after therapy: 3 log10
P388/CPA; [6]
  Net log10 Reduction in tumor burden after therapy: 3 log10
Human lox-IMVI melanoma; 40 mg/kg/dose IV Q1 D × 5, nude mice
  Median Day of Death: 42.0 days

## O=P1(NCCCl)OCCC(OO)N1CCCl (stereo not shown) [HIFA, 4-hydroperoxyifosfamide]
[3]
  effect on viability: did not significantly affect viability

## O=CCCl [chloroacetaldehyde]
[3]; rabbit
  concentration of complete inhibition: 75 µM
